Measurements published in patent US20170096629A1, “FILTRATION DEVICE AND SYSTEM” (Universite Technologie de Compiegne - UTC, priority 2009, published 2017).

Test: diffusion coefficient of molecules through a filtration membrane, co-current filtration system, regression of analytic model
Type: physicochemical
Details: least-squares regression of analytic model on concentration ratio versus time
Description: Such systems may also be used for characterizing a filtration membrane 130. For example, it is possible to evaluate a diffusion coefficient of a molecule for a given membrane 130 from a physical model and measurements of concentration of the molecule in the first chamber 110 and/or the second chamber 120 versus time. The co-current system may be used for calibrating the model and estimating the diffiusion coefficient, and the countercurrent system may be used for checking the diffusion coefficient or vice versa.
In particular, the applicant modeled the time-dependent change of the concentration in the first chamber 110, in the case when a fluid to be filtered circulates in the second chamber 120, with the following equations: • in the case of a co-current flow (like in FIG. 9): […]
and • C1(t) represents the concentration in the first chamber 110 as a function of time t, • L represents the (common) length of the first and second chambers 110, 120, • b represents the (common) width of the first and second chambers 110, 120, • Qf represents the filtration flow rate, • V1 represents the volume of the first chamber 110, • V2 represents the volume of the second chamber 120, • C1o represents the initial concentration in the first chamber 110, • C1∞ represents the equilibrium concentration in the first chamber 110, • Dm represents the diffusion coefficient of the molecule to be filtered for the membrane 130, and • δ represents the thickness of the membrane.
By means of these models, it is possible to determine the values of the diffusion coefficient Dm of the molecules tested for a given membrane 130. For this, for example it is possible to operate in the co-current mode and measure the disappearance of the molecule in the second chamber 120 (and therefore its appearance in the first chamber 110).
In FIGS. 11 and 12 the change in the concentration-over-initial-concentration-in-the-second-chamber 120 ratio is illustrated versus time for given experimental conditions, for urea (FIG. 11) and vitamin B12 (FIG. 12) respectively, with several types of membrane. Moreover, the applicant has also determined this ratio for albumin (graph not shown).
The experimental results are illustrated, for an experiment with a membrane of high porosity (of the 8F type) by icons □, Δ, and for an experiment with a membrane of low porosity (of the 1 FPH type) by icons: *, ◯. A regression of the analytic model is then made for example with a minimization by least squares, in which it is possible to obtain experimentally the diffusion coefficients in (m^2/s) listed in the following table: […]

| diffusion coefficient Dm (membrane 1 FPH (low porosity)) | diffusion coefficient Dm (membrane 8F (high porosity)) | Compound |
| --- | --- | --- |
| 4 × 10^−13 m^2/s | 6 × 10^−12 m^2/s | vitamin B12 |
| 2 × 10^−12 m^2/s | 2 × 10^−11 m^2/s | NC(N)=O [Urea, urea] |

| Compound | diffusion coefficient Dm (membrane 1 FPH (low porosity)) | diffusion coefficient Dm (membrane 8F (high porosity)) |
| --- | --- | --- |
| albumin | 9 × 10^−14 m^2/s | 2 × 10^−13 m^2/s |
